Test results reported in patent US20230159556A1, “NOVEL PROTEIN KINASE INHIBITORS” (TENOVA PHARMACEUTICALS INC., priority 2020, published 2023).
Like-named read-outs stand apart in the source and are kept apart here. Each block holds one molecule with its values, some of them ahead of it.

Tests used:
[1] = ether bond
[2] = ether bond, 25.0 °C, 16.0 h
EGFR_L858R/T790M/C797S = molecular target: T1, EGFR_L858R/T790M/C797S (Homo sapiens, UniProt P00533, C797S/L858R/T790M); assay: In vitro biochemical kinase assay (33P-ATP filter-binding, Reaction Biology)
T1 construct: Reaction Biology Corporation (contract assay provider)
Protocol: (§1) The biochemical kinase assay was performed at Reaction Biology Corporation (www.reactionbiology.com, Malvern, Pa.) following procedures described in the reference (Anastassiadis, T, et al, Nature Biotechnology, 2011, 29, 1039). Base Reaction buffer includes 20 mM Hepes (pH 7.5), 10 mM MgCl2, 1 mM EGTA, 0.02% Brij35, 0.02 mg/ml BSA, 0.1 mM Na3VO4, 2 mM DTT and 1% DMSO. Required cofactors are added individually to each kinase reaction. Testing compounds were dissolved in 100% DMSO to specific concentration. The serial dilution was conducted by Integra Viaflo Assist in DMSO. Compounds in 100% DMSO are into the kinase reaction mixture by Acoustic technology (Echo550; nanoliter range), incubate for 20 min at room temperature, followed by ^33P-ATP and incubation for 2 hours at room temperature. Radioactivity was then detected by filter-binding method. Kinase activity data were expressed as the percent remaining kinase activity in test samples compared to vehicle (dimethyl sulfoxide) reactions. IC50 values and curve fits were obtained using Prism (GraphPad Software).

EGFR_WT = molecular target: T2, EGFR_WT (Homo sapiens, UniProt P00533); assay: as above
T2 construct: Reaction Biology Corporation (contract assay provider)
Protocol: as §1

[3] = molecular target: Ba/F3_EGFR_del19/T790M/C797S cell (Homo sapiens, UniProt P00533, T790M/C797S, cells depend on it, form not given); assay: BaF3 cell proliferation assay (CelltiterGlo, 72 hr); type: cell-based; details: 72 hr incubation; read-out: IC50 (nM, Ba/F3_EGFR_del19/T790M/C797S cell proliferation)
Protocol: (§2) The BaF3 cell proliferation assay was performed at Pharmaron (www.pharmaron.com, Beijing, China). The Ba/F3_WT and Ba/F3_Del19/T790M/C797S cell lines were maintained in 1640 medium containing 10% FBS, 1*PS and 1*Glutamax. Only cells with viability greater than 90% are used for assays. Dispense 30 μl of cell suspension at 700/well into 384 well microplate, add 30 nl compound solution into 384 cell plate by Echo, cells were incubated for 72 hr in 37° C./5% CO2 incubator, add 30 μl reagent CelltiterGlo assay kit (CTG, Promega) per well and shake plates, incubate the plate (avoiding light) at 37° C./5% CO2 for 30 min. and read the luminescence by Envision. The luminescence values were converted to % Inhibition. Calculate IC50 by fitting % inhibition values and log of compound concentrations to nonlinear regression (dose response−variable slope) with Graphpad 5.0.
(§3) Y=Bottom+(Top−Bottom)/(1+10^((Log IC50−X)*HillSlope))
(§4) X: log of inhibitor concentration; Y: % Inhibition.

Ba/F3_WT cell = assay: as above; type: cell-based; details: Mus musculus, 72 hr incubation
Protocol: as §2, §3, §4

[4] = tested on: BaF3-EGFR-Del19/T790M/C797S cells; assay: In vivo Cell Transplant Xenograft (CTX) model; parameters: species or system BALB/c nude mice; details: for tumor growth inhibition rate TGITV (%): end of the experiment
Protocol: The pharmacological experiments in vivo were performed on BALB/c nude mice that subcutaneously implanted BaF3-EGFR-Del19/T790M/C797S cells. BALB/c nude mice, female, 6-8 weeks, weighted about 16-19 grams, the mice were kept in a special pathogen-free environment, and in a single ventilation cage (3 mice per cage). The bedding and water of all the cages were disinfected before use. All animals were free to obtain standard certified commercial laboratory diets. The BaF3-EGFR-Del19/T790M/C797S cell (5×10^6 cells/mice) was implanted subcutaneously for tumor growth. After 10 days, the experiment was started the average tumor volume reached about 130 mm^3. The mice were divided into 4 groups with 6 mice in each group. Compound A29 was orally administered once daily continuously for 15 days at 5 mg/kg, 15 mg/kg and 45 mg/kg. The tumor volume was measured twice a week with a two-dimensional caliper and the volume was measured in cubic millimeters and calculated by the following formula: V=0.5 a×b2, where a and b were the major and minor diameters of the tumor, respectively. The tumor volume at day n is expressed as Relative Tumor Volume (RTV) and calculated according to the following formula: RTV=TVn/TV0, where TVn is the tumor volume at day n and TV0 is the tumor volume at day 0. The T/C (the ratio of tumor volume in […] mice) is determined by TIC (%)=(mean RTV of treated group)/(mean RTV of control group)×100%. The tumor growth inhibition rate TGITV (%) is calculated using the formula TGITV (%)=(1−T/C)×100%.

T2 sequence (P00533 25-1210): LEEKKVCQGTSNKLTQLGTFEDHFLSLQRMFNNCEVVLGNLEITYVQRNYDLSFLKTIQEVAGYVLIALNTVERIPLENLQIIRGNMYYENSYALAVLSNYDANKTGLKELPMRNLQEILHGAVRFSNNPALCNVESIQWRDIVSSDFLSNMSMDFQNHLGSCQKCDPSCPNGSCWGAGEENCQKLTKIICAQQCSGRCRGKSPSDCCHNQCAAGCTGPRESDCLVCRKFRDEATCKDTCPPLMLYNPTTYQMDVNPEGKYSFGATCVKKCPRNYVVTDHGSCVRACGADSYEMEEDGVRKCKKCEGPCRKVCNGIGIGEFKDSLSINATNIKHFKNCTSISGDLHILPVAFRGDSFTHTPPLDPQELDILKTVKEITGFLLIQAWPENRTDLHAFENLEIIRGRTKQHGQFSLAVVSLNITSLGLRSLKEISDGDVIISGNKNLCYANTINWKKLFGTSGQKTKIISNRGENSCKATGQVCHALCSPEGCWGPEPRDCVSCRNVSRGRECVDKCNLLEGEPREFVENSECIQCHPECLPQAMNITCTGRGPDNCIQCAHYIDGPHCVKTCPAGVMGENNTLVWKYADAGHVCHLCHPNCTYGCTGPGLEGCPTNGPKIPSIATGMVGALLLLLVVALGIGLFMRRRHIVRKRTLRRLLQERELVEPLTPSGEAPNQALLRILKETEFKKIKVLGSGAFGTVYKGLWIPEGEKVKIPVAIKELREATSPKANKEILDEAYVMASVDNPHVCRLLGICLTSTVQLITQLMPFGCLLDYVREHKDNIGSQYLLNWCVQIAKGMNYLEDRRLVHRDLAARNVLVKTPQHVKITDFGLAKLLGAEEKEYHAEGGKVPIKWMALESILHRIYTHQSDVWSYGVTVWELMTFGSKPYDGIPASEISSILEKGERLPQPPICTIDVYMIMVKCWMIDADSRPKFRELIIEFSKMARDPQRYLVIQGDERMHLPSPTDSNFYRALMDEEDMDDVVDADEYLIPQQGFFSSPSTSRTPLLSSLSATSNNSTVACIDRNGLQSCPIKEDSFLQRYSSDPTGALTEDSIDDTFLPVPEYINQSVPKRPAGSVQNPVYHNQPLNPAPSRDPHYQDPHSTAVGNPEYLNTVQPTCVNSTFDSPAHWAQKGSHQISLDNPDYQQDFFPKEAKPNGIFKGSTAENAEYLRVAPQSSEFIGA
T1 sequence (P00533 25-1210 T790M/C797S/L858R): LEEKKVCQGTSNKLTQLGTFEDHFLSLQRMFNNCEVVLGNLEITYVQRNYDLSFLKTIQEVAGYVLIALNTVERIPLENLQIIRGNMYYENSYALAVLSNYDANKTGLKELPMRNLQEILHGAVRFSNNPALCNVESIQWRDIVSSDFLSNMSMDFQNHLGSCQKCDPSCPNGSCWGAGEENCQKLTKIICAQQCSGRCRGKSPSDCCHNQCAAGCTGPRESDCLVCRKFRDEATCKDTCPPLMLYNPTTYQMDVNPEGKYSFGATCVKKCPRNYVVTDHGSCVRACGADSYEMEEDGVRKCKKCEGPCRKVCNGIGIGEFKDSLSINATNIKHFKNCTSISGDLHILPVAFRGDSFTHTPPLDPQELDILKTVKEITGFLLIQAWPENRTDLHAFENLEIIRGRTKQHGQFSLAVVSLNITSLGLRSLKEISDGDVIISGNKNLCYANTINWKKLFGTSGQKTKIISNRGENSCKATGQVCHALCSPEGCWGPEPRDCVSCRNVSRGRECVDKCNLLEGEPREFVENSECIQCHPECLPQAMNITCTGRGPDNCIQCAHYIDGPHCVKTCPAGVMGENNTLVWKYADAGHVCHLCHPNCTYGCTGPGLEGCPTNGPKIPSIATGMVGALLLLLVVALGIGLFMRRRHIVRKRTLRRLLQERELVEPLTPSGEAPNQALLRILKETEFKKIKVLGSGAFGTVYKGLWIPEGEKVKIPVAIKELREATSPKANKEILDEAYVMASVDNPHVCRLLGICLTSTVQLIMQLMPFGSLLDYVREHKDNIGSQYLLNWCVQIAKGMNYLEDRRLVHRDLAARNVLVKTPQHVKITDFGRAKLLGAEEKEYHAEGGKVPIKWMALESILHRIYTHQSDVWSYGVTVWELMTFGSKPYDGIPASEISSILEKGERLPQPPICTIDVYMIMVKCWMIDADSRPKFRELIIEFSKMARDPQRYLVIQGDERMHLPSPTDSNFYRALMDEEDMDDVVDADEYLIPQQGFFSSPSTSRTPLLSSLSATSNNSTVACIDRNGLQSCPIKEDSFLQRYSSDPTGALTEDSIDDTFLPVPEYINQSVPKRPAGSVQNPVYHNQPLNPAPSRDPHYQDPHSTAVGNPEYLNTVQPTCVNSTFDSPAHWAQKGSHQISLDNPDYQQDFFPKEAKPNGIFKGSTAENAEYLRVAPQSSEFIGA
Ba/F3_EGFR_del19/T790M/C797S cell, sequence (P00533 with tags, fused parts or gaps DEL746-750/T790M/C797S, form open): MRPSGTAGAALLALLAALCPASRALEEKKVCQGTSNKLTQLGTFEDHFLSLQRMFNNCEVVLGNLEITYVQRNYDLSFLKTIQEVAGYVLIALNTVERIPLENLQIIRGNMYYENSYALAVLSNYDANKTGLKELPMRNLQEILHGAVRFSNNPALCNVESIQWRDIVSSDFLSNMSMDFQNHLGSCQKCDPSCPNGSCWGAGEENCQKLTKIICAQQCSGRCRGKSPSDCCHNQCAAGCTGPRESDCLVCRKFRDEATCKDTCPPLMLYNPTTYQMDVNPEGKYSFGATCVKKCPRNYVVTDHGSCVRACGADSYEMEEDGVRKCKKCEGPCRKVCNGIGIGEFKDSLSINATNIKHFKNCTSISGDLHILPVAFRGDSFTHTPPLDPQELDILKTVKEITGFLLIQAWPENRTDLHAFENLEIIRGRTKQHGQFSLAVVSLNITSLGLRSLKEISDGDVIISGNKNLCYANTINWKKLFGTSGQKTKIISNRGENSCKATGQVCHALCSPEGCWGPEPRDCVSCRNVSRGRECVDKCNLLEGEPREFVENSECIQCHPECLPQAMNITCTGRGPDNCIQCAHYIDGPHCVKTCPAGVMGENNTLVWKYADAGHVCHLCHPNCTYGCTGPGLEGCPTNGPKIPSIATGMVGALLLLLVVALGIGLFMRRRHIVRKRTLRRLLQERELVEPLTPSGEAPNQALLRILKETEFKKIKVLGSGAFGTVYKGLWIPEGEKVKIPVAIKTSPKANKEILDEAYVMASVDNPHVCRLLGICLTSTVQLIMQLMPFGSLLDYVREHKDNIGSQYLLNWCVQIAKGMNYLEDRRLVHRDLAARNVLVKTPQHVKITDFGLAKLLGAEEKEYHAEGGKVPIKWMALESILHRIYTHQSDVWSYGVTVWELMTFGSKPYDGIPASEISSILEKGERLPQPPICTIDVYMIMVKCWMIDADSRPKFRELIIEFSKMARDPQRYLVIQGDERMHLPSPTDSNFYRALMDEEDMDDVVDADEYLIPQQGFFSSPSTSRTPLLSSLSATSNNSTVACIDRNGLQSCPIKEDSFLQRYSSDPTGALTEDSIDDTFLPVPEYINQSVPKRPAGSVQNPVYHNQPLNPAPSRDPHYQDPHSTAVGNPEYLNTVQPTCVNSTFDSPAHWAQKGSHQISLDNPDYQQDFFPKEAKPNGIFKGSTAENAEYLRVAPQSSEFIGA

Compound: COc1cc(N2CCC(N(C)C)CC2)c2cc1Nc1ncc(Cl)c(n1)Nc1ccc(cc1N(C)S(C)(=O)=O)OCCCCC2 [Compound A24, N-(3^5-chloro-1^4-(4-(dimethylamino)piperidin-1-yl)-1^6-methoxy-6-oxa-2,4-diaza-3(2,4)-pyrimidina-1(1,3),5(1,4)-dibenzenacycloundecaphane-5^2-yl)-N-methylmethanesulfonamide]
IC50 (EGFR_L858R/T790M/C797S): 2.7 nM | IC50 (EGFR_WT): 10.8 nM | GI50 [3]: 63 nM | IC50 (Ba/F3_WT cell): 3330 nM

Compound: COc1cc(N2CCC(N3CCN(C)CC3)CC2)c2cc1Nc1ncc(Cl)c(n1)Nc1ccc(cc1N(C)S(C)(=O)=O)OCCCCC2 [Compound A9, N-(3^5-chloro-1^6-methoxy-1^4-(4-(4-methylpiperazin-1-yl)piperidin-1-yl)-6-oxa-2,4-diaza-3(2,4)-pyrimidina-1(1,3),5(1,4)-dibenzenacycloundecaphane-5^2-yl)-N-methylmethanesulfonamide]
IC50 (EGFR_L858R/T790M/C797S): 0.5 nM | IC50 (EGFR_WT): 5.9 nM | GI50 [3]: 34 nM | IC50 (Ba/F3_WT cell): 1390 nM

Compound: COc1cc(N2CCN(C)CC2)c2cc1Nc1ncc(Cl)c(n1)Nc1ccc(cc1S(C)(=O)=O)OCCC2 [Compound A1, 3^5-chloro-1^6-methoxy-1^4-(4-methylpiperazin-1-yl)-5^2-(methylsulfonyl)-6-oxa-2,4-diaza-3(2,4)-pyrimidina-1(1,3),5(1,4)-dibenzenacyclononaphane]
ring closure, isolated yield ([1]; from COc1cc(N2CCN(C)CC2)c(CCCO)cc1Nc1ncc(Cl)c(Nc2ccc(O)cc2S(C)(=O)=O)n1, 16-membered ring, PPh3/DIAD, THF, 18.8 mM): 6% | ring closure, yield of all isomers ([2]; from COc1cc(N2CCN(C)CC2)c(CCCO)cc1Nc1ncc(Cl)c(Nc2ccc(O)cc2S(C)(=O)=O)n1, DIAD/PPh3, THF, 18.8 mM): 6% | IC50 (EGFR_L858R/T790M/C797S): 5580 nM

Compound: COc1cc(N2CCC(N3CCN(C)CC3)CC2)c2cc1Nc1ncc(Cl)c(n1)Nc1ccc(cc1N(C)S(C)(=O)=O)OCCCC(=O)N2 [Compound A39, N-(3^5-chloro-1^6-methoxy-1^4-(4-(4-methylpiperazin-1-yl)piperidin-1-yl)-10-oxo-6-oxa-2,4,11-triaza-3(2,4)-pyrimidina-1(1,3),5(1,4)-dibenzenacycloundecaphane-5^2-yl)-N-methylmethanesulfonamide]
ring closure, yield of all isomers ([2]; from COc1cc(N2CCC(N3CCN(C)CC3)CC2)c(NC(=O)CCCBr)cc1Nc1ncc(Cl)c(Nc2ccc(O)cc2N(C)S(C)(=O)=O)n1, K2CO3/KI, DMF, 20.0 mM): 4.2% | IC50 (EGFR_L858R/T790M/C797S): 7.1 nM

Second part, led by results:

IC50 (EGFR_L858R/T790M/C797S): 0.5 nM | IC50 (EGFR_WT): 9.2 nM | GI50 [3]: 16.4 nM | IC50 (Ba/F3_WT cell): 1320 nM
Compound: COc1cc(N2CCC(N3CCN(C)CC3)CC2)c2cc1Nc1ncc(Br)c(n1)Nc1ccc(cc1N(C)S(C)(=O)=O)OCCCCC2 [Compound A29, N-(3^5-bromo-1^6-methoxy-1^4-(4-(4-methylpiperazin-1-yl)piperidin-1-yl)-6-oxa-2,4-diaza-3(2,4)-pyrimidina-1(1,3),5(1,4)-dibenzenacycloundecaphane-5^2-yl)-N-methylmethanesulfonamide]
ring closure, isolated yield ([1]; from COc1cc(N2CCC(N3CCN(C)CC3)CC2)c(CCCCCBr)cc1Nc1ncc(Br)c(Nc2ccc(O)cc2N(C)S(C)(=O)=O)n1, 18-membered ring, KI/K2CO3, DMF, 10.2 mM): 55% | ring closure, yield of all isomers ([2]; from COc1cc(N2CCC(N3CCN(C)CC3)CC2)c(CCCCCBr)cc1Nc1ncc(Br)c(Nc2ccc(O)cc2N(C)S(C)(=O)=O)n1, K2CO3/KI, DMF, 10.2 mM): 55% | Tumor Volume ([4]; 5 mg/kg orally once daily, Day 0): 130 mm^3 | Tumor Volume ([4]; 5 mg/kg orally once daily, Day 2): 212 mm^3 | Tumor Volume ([4]; 5 mg/kg orally once daily, Day 4): 279 mm^3 | Tumor Volume ([4]; 5 mg/kg orally once daily, Day 7): 462 mm^3 | Tumor Volume ([4]; 5 mg/kg orally once daily, Day 9): 633 mm^3 | Tumor Volume ([4]; 5 mg/kg orally once daily, Day 11): 819 mm^3 | Tumor Volume ([4]; 5 mg/kg orally once daily, Day 14): 1061 mm^3 | tumor growth inhibition rate TGITV (%) ([4]; 5 mg/kg orally once daily): 68% | Tumor Volume ([4]; 15 mg/kg orally once daily, Day 0): 130 mm^3 | Tumor Volume ([4]; 15 mg/kg orally once daily, Day 2): 171 mm^3 | Tumor Volume ([4]; 15 mg/kg orally once daily, Day 4): 226 mm^3 | Tumor Volume ([4]; 15 mg/kg orally once daily, Day 7): 346 mm^3 | Tumor Volume ([4]; 15 mg/kg orally once daily, Day 9): 469 mm^3 | Tumor Volume ([4]; 15 mg/kg orally once daily, Day 11): 597 mm^3 | Tumor Volume ([4]; 15 mg/kg orally once daily, Day 14): 781 mm^3 | tumor growth inhibition rate TGITV (%) ([4]; 15 mg/kg orally once daily): 76% | Tumor Volume ([4]; 45 mg/kg orally once daily, Day 0): 130 mm^3 | Tumor Volume ([4]; 45 mg/kg orally once daily, Day 2): 147 mm^3 | Tumor Volume ([4]; 45 mg/kg orally once daily, Day 4): 172 mm^3 | Tumor Volume ([4]; 45 mg/kg orally once daily, Day 7): 108 mm^3 | Tumor Volume ([4]; 45 mg/kg orally once daily, Day 9): 78 mm^3 | Tumor Volume ([4]; 45 mg/kg orally once daily, Day 11): 25 mm^3 | Tumor Volume ([4]; 45 mg/kg orally once daily, Day 14): 0 mm^3 | tumor growth inhibition rate TGITV (%) ([4]; 45 mg/kg orally once daily): 100% | tumor growth inhibition (in words) ([4]; all doses (5, 15, 45 mg/kg)): significant tumor growth inhibition

IC50 (EGFR_L858R/T790M/C797S): 1.8 nM | IC50 (EGFR_WT): 413 nM | GI50 [3]: 75 nM | IC50 (Ba/F3_WT cell): 6490 nM
Compound: COc1cc(N2CCC(N3CCN(C)CC3)CC2)c2cc1Nc1ncc(Br)c(n1)Nc1ccc(cc1P(C)(C)=O)OCCCCC2 [Compound A33, (3^5-bromo-1^6-methoxy-1^4-(4-(4-methylpiperazin-1-yl)piperidin-1-yl)-6-oxa-2,4-diaza-3(2,4)-pyrimidina-1(1,3),5(1,4)-dibenzenacycloundecaphane-5^2-yl)dimethylphosphine oxide]

IC50 (EGFR_L858R/T790M/C797S): 0.6 nM | IC50 (EGFR_WT): 14.9 nM | GI50 [3]: 22.4 nM | IC50 (Ba/F3_WT cell): 1690 nM
Compound: CCN(c1cc2ccc1Nc1nc(ncc1Br)Nc1cc(c(N3CCC(N4CCN(C)CC4)CC3)cc1OC)CCCCCO2)S(C)(=O)=O [Compound A30, N-(3^5-bromo-1^6-methoxy-1^4-(4-(4-methylpiperazin-1-yl)piperidin-1-yl)-6-oxa-2,4-diaza-3(2,4)-pyrimidina-1(1,3),5(1,4)-dibenzenacycloundecaphane-5^2-yl)-N-ethylmethanesulfonamide]
